Values quoted from earlier work as cited in patent publication US10736937B2 (priority 2014, dated 2020).

Tested on: Streptococcus pneumoniae
Details: mucosal administration; co-administrated with the pathogen or 2 to 24 h before bacterial challenge

## flagellin
  protection against Streptococcus pneumoniae lung infection: protect
